The text below walks through data of patent US20260240818A1, “METHODS FOR THE TREATMENT OF FOOD ALLERGY” (INSTITUT NATIONAL DE LA SANTÉ ET DE LA RECHERCHE MÉDICALE, priority 2023, published 2026).

One test deals with peanut-specific IgE. Briefly: Peanut-specific IgE ELISA on serum from the peanut allergy model. As to conditions: FOS-enriched diet, serum after last PE challenge. It counts as in vivo, mouse. The procedure: On days 1, 7, and 21 mice were sensitized with 500 μg of peanut extract (PE) together with 2 mg of Imject alum (Thermo Fisher, France) by intraperitoneal (IP) injection (100 μl in PBS). Starting from day 35, for 7 days, mice were challenged with 30 mg of PE in NaHCO3 (0.1M) by oral gavage, and clinical score (Table 2) and occurrence of diarrhoea was registered for 1 hours after each gavage. After the last challenge, blood is collected for serum extraction. Non-allergic control animals were sham sensitized (2 mg alum but no peanut extract) but challenged like the other experimental groups. Peanut Extract (PE) was coated on ELISA plates at 5 μg/ml in 0.05 M sodium carbonate-bicarbonate buffer (Sigma-Aldrich, France) over-night at 4° C., plates were washed 3 times with PBS-0.05% Tween 20 (Sigma-Aldrich, France). […] Sample preparation: Mouse serum from blood collected 1 hour after the last oral peanut challenge was diluted 1/50 in ELISA assay buffer (1×) from the ELISA kit used. The colorimetric reaction was stopped by addition of H2SO4 (5M) and absorbance was recorded at 450 nm.

In another test the test system is peanut-sensitized mice. Briefly: Peanut allergy mouse model: clinical score and diarrhoea after oral peanut extract challenge. It counts as in vivo. The conditions noted are these: for clinical score / incidence of diarrhoea: FOS-enriched diet; for clinical score: average of days 1-3 of oral PE challenge; for incidence of diarrhoea: oral PE challenge.
[1] abbreviates: FPS-ZM1 0.5 or 1 mg/kg b.w. i.p. twice weekly.
[2] abbreviates: pyridoxamine 1 mg/ml in drinking water throughout.

“Also recorded” adds a separate entry of the source.

Experimental for peanut-sensitized mice: All mice were bred and maintained on a peanut- and soy-free diet under specific pathogen-free conditions until the start of the experiment.
Pyridoxamine: pyridoxamine dihydrochloride (Sigma-Aldrich, France) is added to drinking water at 1 mg/ml throughout the experiment.
RAGE antagonist FPS-ZM1: twice weekly 100 μl IP injections of FPS-ZM1 in PBS (Sigma Aldrich, France) at 0 (control group), 0.5, or 1 mg/kg b.w. were performed throughout the experiment.
Clinical score (Table 2) was continually observed from 15 to 50 minutes after oral allergen challenge and noted for each mouse. For analysis purposes, the average clinical score of the first 3 days of challenge is calculated for each mouse.
Experimental groups were compared by One-Way ANOVA, selected groups were compared using Holm-Sidak's correction for multiple comparisons. For diarrhoea data, pairwise comparisons of survival curves were performed and analysed by Mantel-Cox log-rank test.

On to `O=C(c1ccc(Cl)cc1)N(Cc1ccccc1)C1CCCCC1` [FPS-ZM1, 4-Chloro-N-cyclohexyl-N-(phenylmethyl)benzamide], for which, in the test on peanut-specific IgE (setting [1]), the “allergen-specific IgE levels” value was “lowering”. Moreover, in the test on peanut-sensitized mice (setting [1]), the “FOS-induced aggravating effects in a mouse model of peanut allergy” value is on record as “eliminates; also recorded: limit”, the clinical score entry is “lowering” and the incidence of diarrhoea result was “lowering”.
Take `Cc1ncc(CO)c(CN)c1O` [pyridoxamine]: the “serum peanut-specific IgE levels” value in the test with peanut-specific IgE (setting [2]) was “reduced”. Further, in the test on peanut-sensitized mice (setting [2]), the “aggravating effects of the FOS-enriched diet on peanut allergic reactions” value was “eliminates; also recorded: block”, the clinical score result is “reduced” and the incidence of diarrhoea result was “reduced”.
